Source: US20170210778A1, “NOVEL COMPOUNDS” (The Provost, Fellows, Foundation Scholars, and the other …, priority 2014, published 2017)
*1 amine or outer side, *2 acyl side, *3 side chain or, on linkers, in order; H or OH if unused. Where a SMILES comes first, the peptide text is derived from it. [ ]: non-standard residue; d: D form. The star is where a group is joined. d(γGlu) = O=C(O)[C@@H](CCC(=O)[*:2])N[*:1]; Ala(3-yl) = N[C@@H](C*)C(=O)O; dLac = C[C@@H](O)C(=O)O

Legend:
human NOD1 = target: T1, human NOD1 (Homo sapiens, UniProt Q9Y239); assay: NOD1 functional agonist assay, 293hNOD1-SEAP reporter cells; type: cell-based; details: 293hNOD1 cells, OD above 3*O.D of negative control
T1 construct: expressed in transfected cells; host or cells: HEK293
T1 sequence (Q9Y239 1-953): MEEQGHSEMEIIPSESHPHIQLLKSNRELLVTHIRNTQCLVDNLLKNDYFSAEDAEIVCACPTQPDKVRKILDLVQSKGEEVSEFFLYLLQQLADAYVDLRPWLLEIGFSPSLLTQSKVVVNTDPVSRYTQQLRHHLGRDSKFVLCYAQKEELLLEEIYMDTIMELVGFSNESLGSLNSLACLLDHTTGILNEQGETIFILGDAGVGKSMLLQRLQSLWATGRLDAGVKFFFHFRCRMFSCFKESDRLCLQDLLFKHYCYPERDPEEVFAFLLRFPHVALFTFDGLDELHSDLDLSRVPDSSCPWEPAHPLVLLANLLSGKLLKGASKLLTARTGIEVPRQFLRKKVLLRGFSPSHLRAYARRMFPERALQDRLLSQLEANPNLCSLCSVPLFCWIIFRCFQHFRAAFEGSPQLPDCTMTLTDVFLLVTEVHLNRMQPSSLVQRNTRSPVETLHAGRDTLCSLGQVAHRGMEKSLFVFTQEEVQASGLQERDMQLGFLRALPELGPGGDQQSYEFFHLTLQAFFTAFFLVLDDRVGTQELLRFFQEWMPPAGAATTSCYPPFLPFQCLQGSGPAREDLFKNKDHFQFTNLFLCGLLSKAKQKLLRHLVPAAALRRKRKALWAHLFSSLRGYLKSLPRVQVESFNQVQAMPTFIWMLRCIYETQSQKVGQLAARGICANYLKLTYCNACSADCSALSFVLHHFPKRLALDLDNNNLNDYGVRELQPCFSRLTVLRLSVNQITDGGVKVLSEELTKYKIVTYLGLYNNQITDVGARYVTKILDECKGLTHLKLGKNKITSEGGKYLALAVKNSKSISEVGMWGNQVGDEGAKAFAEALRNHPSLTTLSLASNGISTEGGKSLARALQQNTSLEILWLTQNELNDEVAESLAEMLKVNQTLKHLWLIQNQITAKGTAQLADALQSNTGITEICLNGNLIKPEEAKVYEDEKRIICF
From the text: (§1) HEK293 cells were stably transfected with plasmid for the overexpression of the NOD1 genes and a reporter plasmid expressing a secreted embryonic alkaline phosphatase (SEAP) gene under the control of a promoter inducible by the transcription factors NF-κB and AP-1. These cells are referred herein as 293hNOD1-SEAP (for cells overexpressing the human NOD1 gene) and 293mNOD1-SEAP (for cells overexpressing the murine NOD1 gene). Upon NOD1 stimulation, these cells induce the activation of NF-κB and AP-1 and subsequently the secretion of SEAP. The reporter protein is easily detectable and measurable when using QUANTI-Blue™ (InvivoGen, San Diego, Calif.), a medium that turns purple/blue in the presence of SEAP.
(§2) The biological activity of the compounds of the invention tested using 293hNOD1 and 293mNOD1 cells. SEAP expression was measured using the commercially available SEAP detection kit (HEK-Blue™ Detection, InvivoGen). The SEAP activity in cells was quantified using the microplate reader (FLUOStar OPTIMA, BMG laboratories), the absorbance values were read using filter with excitation at 620 nm and emission at 655 nm. The results provided in Table 2 were expressed as the concentration were a significant mean optical density (OD) can be observed (above 3*O.D of negative control). As a positive control, the NOD1 pathway was stimulated with commercially available iE-DAP (InvivoGen) and C12-iE-DAP (an acylated derivative of DAP; InvivoGen). As a negative control endotoxin-free water was used. Additionally, 293 cells expressing the SEAP gene but not the NOD1 gene were used as a control.

murine NOD1 = target: T2, murine NOD1 (Mus musculus, UniProt Q8BHB0); assay: NOD1 functional agonist assay, 293mNOD1-SEAP reporter cells; type: cell-based; details: 293mNOD1 cells, OD above 3*O.D of negative control
T2 construct: expressed in transfected cells; host or cells: HEK293
T2 sequence (Q8BHB0 1-953): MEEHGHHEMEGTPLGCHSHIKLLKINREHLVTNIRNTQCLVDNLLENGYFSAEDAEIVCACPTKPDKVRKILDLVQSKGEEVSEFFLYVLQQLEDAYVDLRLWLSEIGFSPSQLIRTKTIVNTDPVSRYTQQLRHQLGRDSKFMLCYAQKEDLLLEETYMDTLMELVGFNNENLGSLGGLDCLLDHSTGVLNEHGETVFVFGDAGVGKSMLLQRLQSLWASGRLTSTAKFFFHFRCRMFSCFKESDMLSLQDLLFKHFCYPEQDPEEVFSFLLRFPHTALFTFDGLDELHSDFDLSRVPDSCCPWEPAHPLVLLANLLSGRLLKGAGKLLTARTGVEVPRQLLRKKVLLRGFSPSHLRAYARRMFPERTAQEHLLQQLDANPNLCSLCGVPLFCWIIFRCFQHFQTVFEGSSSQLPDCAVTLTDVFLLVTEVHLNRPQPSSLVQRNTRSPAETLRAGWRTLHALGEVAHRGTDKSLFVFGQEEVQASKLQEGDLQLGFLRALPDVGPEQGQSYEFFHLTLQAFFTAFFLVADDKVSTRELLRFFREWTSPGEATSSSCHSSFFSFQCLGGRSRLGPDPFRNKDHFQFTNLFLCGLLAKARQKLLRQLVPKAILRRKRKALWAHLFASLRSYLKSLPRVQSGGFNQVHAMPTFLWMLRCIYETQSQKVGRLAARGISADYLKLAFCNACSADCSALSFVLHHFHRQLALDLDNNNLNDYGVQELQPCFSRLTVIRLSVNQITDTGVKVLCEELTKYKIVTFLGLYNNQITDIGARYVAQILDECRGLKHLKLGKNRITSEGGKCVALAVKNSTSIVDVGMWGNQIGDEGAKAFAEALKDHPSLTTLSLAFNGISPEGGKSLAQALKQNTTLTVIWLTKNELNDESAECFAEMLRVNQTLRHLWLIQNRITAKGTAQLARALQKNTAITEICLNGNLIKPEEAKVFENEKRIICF
From the text: as §1, §2

SMILES	hNod1: concentration where a significant mean optical density (OD) can be observed (human NOD1) [µg/mL]	mNod1: concentration where a significant mean optical density (OD) can be observed (murine NOD1) [µg/mL]
CCCCCCC(=O)N[C@@H](C)C(=O)N[C@H](CCC(=O)N[C@H](CSC[C@H](N)C(=O)O)C(=O)N[C@H](C)C(=O)O)C(=O)O [Example 19, N^5-((S)-3-(((R)-2-amino-2-carboxyethyl)thio)-1-(((R)-1-carboxyethyl)amino)-1-oxopropan-2-yl)-N^2-(heptanoyl-L-alanyl)-D-glutamine]	0.1	0.1
CCCCCCC(=O)N[C@H](CCC(=O)N[C@H](CSC[C@H](N)C(=O)O)C(=O)NCC(=O)O)C(=O)O [Example 23, N^5-((S)-3-(((R)-2-amino-2-carboxyethyl)thio)-1-((carboxymethyl)amino)-1-oxopropan-2-yl)-N^2-heptanoyl-D-glutamine]	1	1
CCCCCCCCCCCCCC(=O)N[C@H](CCC(=O)N[C@H](CSC[C@H](N)C(=O)O)C(=O)O)C(=O)O [Example 4, N^5-((S)-2-(((R)-2-amino-2-carboxyethyl)thio)-1-carboxyethyl)-N^2-tetradecanoyl-D-glutamine]	0.0001	0.001
CCCCCCCCCCCC(=O)N[C@H](CCC(=O)N[C@H](CSC[C@H](N)C(=O)O)C(=O)O)C(=O)O [Example 3, N^5-((S)-2-(((R)-2-amino-2-carboxyethyl)thio)-1-carboxyethyl)-N^2-dodecanoyl-D-glutamine]	0.01	0.1
CC(C)[C@H](N)C(=O)N[C@H](CCC(=O)N[C@H](CSC[C@H](N)C(=O)O)C(=O)O)C(=O)O [Example 8, N^2-(L-valyl)-N^5-((S)-2-(((R)-2-amino-2-carboxyethyl)thio)-1-carboxyethyl)-D-glutamine]	0.1	1
CCCCCCC(=O)N[C@H](CCC(=O)N[C@H](CSC[C@H](N)C(=O)O)C(=O)O)C(=O)O [Example 2, N^5-((S)-2-(((R)-2-amino-2-carboxyethyl)thio)-1-carboxyethyl)-N^2-heptanoyl-D-glutamine]	0.1	1
C[C@H](N)C(=O)N[C@H](CCC(=O)N[C@H](CSC[C@H](N)C(=O)O)C(=O)O)C(=O)O [Example 5, N^2-(L-alanyl)-N^5-((S)-2-(((R)-2-amino-2-carboxyethyl)thio)-1-carboxyethyl)-D-glutamine]	1	1
N[C@H](CCC(=O)N[C@H](CSC[C@H](N)C(=O)O)C(=O)NCC(=O)O)C(=O)O [Example 22, N^5-((S)-3-(((R)-2-amino-2-carboxyethyl)thio)-1-((carboxymethyl)amino)-1-oxopropan-2-yl)-D-glutamine]	1	10
CCCCCCCCCCCC(=O)N[C@H](CCC(=O)N[C@H](CSC[C@H](N)C(=O)O)C(=O)N[C@H](C)C(=O)O)C(=O)O [Example 16, N^5-((S)-3-(((R)-2-amino-2-carboxyethyl)thio)-1-(((R)-1-carboxyethyl)amino)-1-oxopropan-2-yl)-N^2-dodecanoyl-D-glutamine]	0.01	0.001
CCCCCCCCCCCCCC(=O)N[C@H](CCC(=O)N[C@H](CSC[C@H](N)C(=O)O)C(=O)N[C@H](C)C(=O)O)C(=O)O [Example 17, N^5-((S)-3-(((R)-2-amino-2-carboxyethyl)thio)-1-(((R)-1-carboxyethyl)amino)-1-oxopropan-2-yl)-N^2-tetradecanoyl-D-glutamine]	0.01	0.001

The remaining lines, values ahead:

hNod1: concentration where a significant mean optical density (OD) can be observed (human NOD1) [µg/mL]	mNod1: concentration where a significant mean optical density (OD) can be observed (murine NOD1) [µg/mL]	SMILES
10	10	N[C@H](CCC(=O)N[C@@H](COC[C@@H](N)C(=O)O)C(=O)O)C(=O)O [Example 34, N^5-((S)-2-((R)-2-amino-2-carboxyethoxy)-1-carboxyethyl)-D-glutamine]
10	10	C[C@H](NC(=O)[C@@H](C)O)C(=O)N[C@H](CCC(=O)N[C@H](CSC[C@H](N)C(=O)O)C(=O)NCC(=O)O)C(=O)O [Example 30, N^5-((S)-3-(((R)-2-amino-2-carboxyethyl)thio)-1-((carboxymethyl)amino)-1-oxopropan-2-yl)-N^2-(((R)-2-hydroxypropanoyl)-L-alanyl)-D-glutamine] (H-[dLac]A[d(γGlu)][dC](Ala(3-yl))G-OH)
10	0.1	C[C@H](N)C(=O)N[C@H](CCC(=O)N[C@H](CSC[C@H](N)C(=O)O)C(=O)NCC(=O)O)C(=O)O [Example 26, N^2-(L-alanyl)-N^5-((S)-3-(((R)-2-amino-2-carboxyethyl)thio)-1-((carboxymethyl)amino)-1-oxopropan-2-yl)-D-glutamine]
0.001	0.001	CCCCCCCCCCCC(=O)N[C@@H](C)C(=O)N[C@H](CCC(=O)N[C@H](CSC[C@H](N)C(=O)O)C(=O)NCC(=O)O)C(=O)O [Example 28, N^5-((S)-3-(((R)-2-amino-2-carboxyethyl)thio)-1-((carboxymethyl)amino)-1-oxopropan-2-yl)-N^2-(dodecanoyl-L-alanyl)-D-glutamine]
